Like-named read-outs stand apart in the source and are kept apart here.
Test system: HBV viral load (viral production from HepAD38 cells)
Experiment: Activity of test compounds on viral production from HepAD38 cells (viral load by qPCR of HBV core sequence)
Format: cell-based
Details: viral load lowering, 5 days, qPCR of supernatant, read-out: VL HepAD38 EC50 range
How it was run: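 EC50 and CC50 come from four-parameter logistic fits: HBV core DNA in supernatant by TaqMan qPCR against DNA standards, normalised to DMSO controls, and cell viability by CellTiter-Glo. Cells were plated at 50,000/well without tetracycline (2% FBS) and exposed to compounds (highest 10 μM) for 5 days, 37 °C.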

[1] = Hepatitis B virus, HePAD38, 120 h

| SMILES | EC50 [1] | EC50 |
| --- | --- | --- |
| Cn1cnc(C2CC3CC(O)(c4c(F)c(N)nn4C)CC3C2)c1C(=O)Nc1ccc(F)c(Cl)c1 (stereo not shown) [Example 52, 4-(5-(3-Amino-4-fluoro-1-methyl-1H-pyrazol-5-yl)-5-hydroxyoctahydropentalen-2-yl)-N-(3-chloro-4-fluorophenyl)-1-methyl-1H-imidazole-5-carboxamide] | < 10 nM |  |
| Cn1cnc(C2CC3CC(O)(c4cc(O)nn4C)CC3C2)c1C(=O)Nc1ccc(F)c(Cl)c1 (stereo not shown) [Example 53, N-(3-Chloro-4-fluorophenyl)-4-(5-hydroxy-5-(3-hydroxy-1-methyl-1H-pyrazol-5-yl)octahydropentalen-2-yl)-1-methyl-1H-imidazole-5-carboxamide] | < 10 nM |  |
| CC(C)Oc1cc(C2(O)CC3CC(c4ncn(C)c4C(=O)Nc4ccc(F)c(Cl)c4)CC3C2)n(C)n1 (stereo not shown) [Example 54, N-(3-Chloro-4-fluorophenyl)-4-(5-hydroxy-5-(3-isopropoxy-1-methyl-1H-pyrazol-5-yl)octahydropentalen-2-yl)-1-methyl-1H-imidazole-5-carboxamide] | < 10 nM |  |
| Cn1cnc(C2CC3CC(O)(c4cc(OCC(C)(C)O)nn4C)CC3C2)c1C(=O)Nc1ccc(F)c(Cl)c1 (stereo not shown) [Example 55, N-(3-Chloro-4-fluorophenyl)-4-(5-hydroxy-5-(3-(2-hydroxy-2-methylpropoxy)-1-methyl-1H-pyrazol-5-yl)octahydropentalen-2-yl)-1-methyl-1H-imidazole-5-carboxamide] | < 10 nM |  |
| CC#Cc1cc(C2(O)CC3CC(c4ncn(C)c4C(=O)Nc4ccc(F)c(Cl)c4)CC3C2)n(C)n1 (stereo not shown) [Example 56, N-(3-Chloro-4-fluorophenyl)-4-(5-hydroxy-5-(1-methyl-3-(prop-1-yn-1-yl)-1H-pyrazol-5-yl)octahydropentalen-2-yl)-1-methyl-1H-imidazole-5-carboxamide] | < 10 nM |  |
| Cn1cnc(C2CC3CC(O)(c4cc(C#N)nn4C)CC3C2)c1C(=O)Nc1ccc(F)c(Cl)c1 (stereo not shown) [Example 57, N-(3-Chloro-4-fluorophenyl)-4-(5-(3-cyano-1-methyl-1H-pyrazol-5-yl)-5-hydroxyoctahydropentalen-2-yl)-1-methyl-1H-imidazole-5-carboxamide] | < 10 nM |  |
| CC(=O)c1cc(C2(O)CC3CC(c4ncn(C)c4C(=O)Nc4ccc(F)c(Cl)c4)CC3C2)n(C)n1 (stereo not shown) [Example 58, 4-(5-(3-Acetyl-1-methyl-1H-pyrazol-5-yl)-5-hydroxyoctahydropentalen-2-yl)-N-(3-chloro-4-fluorophenyl)-1-methyl-1H-imidazole-5-carboxamide] | < 10 nM |  |
| Cn1cnc(C2CC3CC(O)(c4cc(C(C)(C)O)nn4C)CC3C2)c1C(=O)Nc1ccc(F)c(Cl)c1 (stereo not shown) [Example 59, N-(3-Chloro-4-fluorophenyl)-4-(5-hydroxy-5-(3-(2-hydroxypropan-2-yl)-1-methyl-1H-pyrazol-5-yl)octahydropentalen-2-yl)-1-methyl-1H-imidazole-5-carboxamide] | < 10 nM |  |
| CC(O)c1cc(C2(O)CC3CC(c4ncn(C)c4C(=O)Nc4ccc(F)c(Cl)c4)CC3C2)n(C)n1 (stereo not shown) [Example 60, N-(3-Chloro-4-fluorophenyl)-4-(5-hydroxy-5-(3-(1-hydroxyethyl)-1-methyl-1H-pyrazol-5-yl)octahydropentalen-2-yl)-1-methyl-1H-imidazole-5-carboxamide] |  | < 10 nM |
| Cn1cnc(C2CC3CC(O)(c4c(F)c(O)nn4C)CC3C2)c1C(=O)Nc1ccc(F)c(Cl)c1 (stereo not shown) [Example 61, N-(3-Chloro-4-fluorophenyl)-4-(5-(4-fluoro-3-hydroxy-1-methyl-1H-pyrazol-5-yl)-5-hydroxyoctahydropentalen-2-yl)-1-methyl-1H-imidazole-5-carboxamide] | < 10 nM |  |
| Cn1cnc(C2CC3CC(O)(c4c(F)c(OCC(O)C(F)(F)F)nn4C)CC3C2)c1C(=O)Nc1ccc(F)c(Cl)c1 (stereo not shown) [Example 62, N-(3-Chloro-4-fluorophenyl)-4-(5-(4-fluoro-1-methyl-3-(3,3,3-trifluoro-2-hydroxypropoxy)-1H-pyrazol-5-yl)-5-hydroxyoctahydropentalen-2-yl)-1-methyl-1H-imidazole-5-carboxamide] | < 10 nM |  |
| Cn1cnc(C2CC3CC(O)(c4c(F)c(NCC(C)(C)O)nn4C)CC3C2)c1C(=O)Nc1ccc(F)c(Cl)c1 (stereo not shown) [Example 63, N-(3-Chloro-4-fluorophenyl)-4-(5-(4-fluoro-3-((2-hydroxy-2-methylpropyl)amino)-1-methyl-1H-pyrazol-5-yl)-5-hydroxyoctahydropentalen-2-yl)-1-methyl-1H-imidazole-5-carboxamide] | < 10 nM |  |
| Cn1cnc(C2CC3CC(O)(c4c(F)c(C#N)nn4C)CC3C2)c1C(=O)Nc1ccc(F)c(Cl)c1 (stereo not shown) [Example 64, N-(3-Chloro-4-fluorophenyl)-4-(5-(3-cyano-4-fluoro-1-methyl-1H-pyrazol-5-yl)-5-hydroxyoctahydropentalen-2-yl)-1-methyl-1H-Imidazole-5-carboxamide] | < 10 nM |  |
| CC(=O)c1nn(C)c(C2(O)CC3CC(c4ncn(C)c4C(=O)Nc4ccc(F)c(Cl)c4)CC3C2)c1F (stereo not shown) [Example 65, 4-(5-(3-Acetyl-4-fluoro-1-methyl-1H-pyrazol-5-yl)-5-hydroxyoctahydropentalen-2-yl)-N-(3-chloro-4-fluorophenyl)-1-methyl-1H-imidazole-5-carboxamide] | < 10 nM |  |
| Cn1cnc(C2CC3CC(O)(c4c(F)c(C(C)(C)O)nn4C)CC3C2)c1C(=O)Nc1ccc(F)c(Cl)c1 (stereo not shown) [Example 66, N-(3-Chloro-4-fluorophenyl)-4-(5-(4-fluoro-3-(2-hydroxypropan-2-yl)-1-methyl-1H-pyrazol-5-yl)-5-hydroxyoctahydropentalen-2-yl)-1-methyl-1H-imidazole-5-carboxamide] | < 10 nM |  |
| CC(CO)Oc1cc(C2(O)CC3CC(c4ncn(C)c4C(=O)Nc4ccc(F)c(Cl)c4)CC3C2)n(C)n1 (stereo not shown) [Example 67, N-(3-Chloro-4-fluorophenyl)-4-(5-hydroxy-5-(3-((1-hydroxypropan-2-yl)oxy)-1-methyl-1H-pyrazol-5-yl)octahydropentalen-2-yl)-1-methyl-1H-imidazole-5-carboxamide] |  | < 10 nM |
| Cc1c(N)nn(C)c1C1(O)CC2CC(c3ncn(C)c3C(=O)Nc3ccc(F)c(Cl)c3)CC2C1 (stereo not shown) [Example 75, 4-(5-(3-Amino-1,4-dimethyl-1H-pyrazol-5-yl)-5-hydroxyoctahydropentalen-2-yl)-N-(3-chloro-4-fluorophenyl)-1-methyl-1H-imidazole-5-carboxamide] | < 10 nM |  |
| CCn1nc(N)cc1C1(O)CC2CC(c3ncn(C)c3C(=O)Nc3ccc(F)c(Cl)c3)CC2C1 (stereo not shown) [Example 76] | < 10 nM |  |
| CC(C)n1nc(N)cc1C1(O)CC2CC(c3ncn(C)c3C(=O)Nc3ccc(F)c(Cl)c3)CC2C1 (stereo not shown) [Example 77, 4-(5-(3-Amino-1-Isopropyl-1H-pyrazol-5-yl)-5-hydroxyoctahydropentalen-2-yl)-N-(3-chloro-4-fluorophenyl)-1-methyl-1H-imidazole-5-carboxamide] | < 10 nM |  |
| C[C@H](O)c1cc(C2(O)CC3CC(c4ncn(C)c4C(=O)Nc4ccc(F)c(Cl)c4)CC3C2)n(C)n1 (stereo partly drawn) [Example 78, N-(3-Chloro-4-fluorophenyl)-4-(−5-hydroxy-5-(3-((S)-1-hydroxyethyl)-1-methyl-1H-pyrazol-5-yl)octahydropentalen-2-yl)-1-methyl-1H-imidazole-5-carboxamide] | < 10 nM |  |
| O=C1CC2CC(c3nc4n(c3C(=O)Nc3ccc(F)c(Cl)c3)CCCC4)CC2C1 (stereo not shown) [Example 81, N-(3-Chloro-4-fluorophenyl)-2-(5-oxooctahydropentalen-2-yl)-5,6,7,8-tetrahydroimidazo[1,2-a]pyridine-3-carboxamide] |  | 10 to 50 nM |
| O=C(Nc1ccc(F)c(Cl)c1)c1c(C2CC3CC(O)CC3C2)nc2n1CCOC2 (stereo not shown) [Example 82, N-(3-Chloro-4-fluorophenyl)-2-(5-hydroxyoctahydropentalen-2-yl)-5,6-dihydro-8H-imidazo[2,1-c][1,4]oxazine-3-carboxamide] | 50 to 500 nM |  |
| CC(C)(C)OC(=O)N1CCn2c(nc(C3CC4CC(O)CC4C3)c2C(=O)Nc2ccc(F)c(Cl)c2)C1 (stereo not shown) [Example 84, tert-Butyl 3-((3-chloro-4-fluorophenyl)carbamoyl)-2-(5-hydroxy-octahydropentalen-2-yl)-5,6-dihydroimidazo[1,2-a]pyrazine-7(8H)-carboxylate] | 50 to 500 nM |  |
| O=C(Nc1ccc(F)c(Cl)c1)c1c(C2CC3CC(O)CC3C2)nc2n1CCNC2 (stereo not shown) [Example 85, N-(3-chloro-4-fluorophenyl)-2-(5-hydroxyoctahydropentalen-2-yl)-5,6,7,8-tetrahydroimidazo[1,2-a]pyrazine-3-carboxamide] | 50 to 500 nM |  |
| CC(=O)N1CCn2c(nc(C3CC4CC(O)CC4C3)c2C(=O)Nc2ccc(F)c(Cl)c2)C1 (stereo not shown) [Example 87, 7-acetyl-N-(3-chloro-4-fluorophenyl)-2-(5-hydroxyoctahydropentalen-2-yl)-5,6,7,8-tetrahydroimidazo[1,2-a]pyrazine-3-carboxamide] | < 10 nM |  |
| CC(C)(C)OC(=O)N1CCn2c(nc(C3CC4CC(=O)CC4C3)c2C(=O)Nc2ccc(F)c(Cl)c2)C1 (stereo not shown) [Example 90, tert-butyl 3-((3-chloro-4-fluorophenyl)carbamoyl)-2-(5-oxooctahydro-pentalen-2-yl)-5,6-dihydroimidazo[1,2-a]pyrazine-7(8H)-carboxylate] | 50 to 500 nM |  |
| CN1CCn2c(nc(C3CC4CC(O)CC4C3)c2C(=O)Nc2ccc(F)c(Cl)c2)C1 (stereo not shown) [Example 91, N-(3-chloro-4-fluorophenyl)-2-(5-hydroxyoctahydropentalen-2-yl)-7-methyl-5,6,7,8-tetrahydroimidazo[1,2-a]pyrazine-3-carboxamide] | < 10 nM |  |
| Cc1nn(C)c(C2(O)CC3CC(c4ncn(C)c4C(=O)Nc4ccc(F)c(Cl)c4)CC3C2)c1F (stereo not shown) [Example 92, N-(3-chloro-4-fluorophenyl)-4-(5-(4-fluoro-1,3-dimethyl-1H-pyrazol-5-yl)-5-hydroxyoctahydropentalen-2-yl)-1-methyl-1H-imidazole-5-carboxamide] | < 10 nM |  |

From patent US12655130B2 (ASSEMBLY BIOSCIENCES, INC., priority 2020, dated 2026)
